According to patent US8791144B2, “Substituted N-phenyl-1-(4-Pyridinyl)-1H-pyrazol-3-amines” (Janssen Pharmaceutica NV, priority 2009, dated 2014):
Where two headings read alike, the source gives them in different places.

Key:
[1] = target: T1, hα7-wt nAChR (Homo sapiens, UniProt P36544); assay: Ca2+ flux imaging (FDSS): potentiation of the choline response; assay type: cell-based; details: for EC50: read-out: Potency (pEC50) (converted); for Emax: read-out: % Efficacy
Protocol: • a) Assay Buffer • Hanks buffered saline solution (HBSS, Invitrogen, Belgium), supplemented with 10 mM HEPES (Invitrogen, Belgium), CaCl2 to a final concentration of 5 mM, 0.1% Bovine serum albumin (Sigma-Aldrich NV, Belgium). • b) Calcium-Sensitive Dye—Fluo-4AM • Fluo-4AM (Molecular Probes, USA) was dissolved in DMSO containing 10% Pluronic acid (Molecular Probes, USA) to give a stock solution which was diluted in assay buffer supplemented with 5 mM probenicid (Sigma, Aldrich NV, Belgium) to give a final concentration of 2 μM. • c) 384-Well Plates • Black 384 well plate black/clear plates, PDL pre-coated (Corning, Incorporated, USA) • d) Calcium Flux Measurement • A Functional drug screening system (FDSS, Hamamatsu) was used to measure intracellular free-calcium flux signals. Method
Monolayers of hα7-wt nAChR-expressing cells were grown in multi-well plates, in particular black-sided, transparent bottomed 384 well plates coated with poly-D-lysine for 24 hours prior to loading with a fluorescent calcium indicator, in a particular embodiment loading with fluo-4AM for up to 120 minutes.
PAM activity was detected in real time by applying the compounds to be tested to the loaded cells along with a α7 nicotinic receptor agonist during constant monitoring of cellular fluorescence in a FDSS. Compounds giving peak fluorescent responses greater than the response due to agonist alone, were considered to be α7 nAChR PAM's. In a particular embodiment, the α7 nicotinic receptor agonist was choline, a more particular embodiment choline applied at a sub-maximal concentration of 100 μM. In a further setting of the present invention the compounds to be tested were applied prior to the α7 nicotinic receptor agonist, in a particular embodiment up to 10 minutes prior to the agonist.
A control response to choline was calculated on each plate from the difference in peak in fluorescence in wells receiving either choline or assay buffer alone. Compounds of the present invention were tested at a concentration range from 0.01 μM to 30 μM. Compounds were considered to have an interesting activity when they potentiated the choline signal at least with 200% when tested at a concentration of 30 μM (the efficacy of 100 μM choline was defined as 100% in the absence of a PAM). An EC50 (or pEC50) was determined as a concentration relating to half the maximal effect, when a clear sigmoidal curve with top plateau was obtained.

[2] = target: T1, hα7-wt nAChR; assay: Patch-clamp current recording (whole-cell voltage clamp), potentiation of choline current and PAM type; assay type: cell-based; design: key: Type 0 compounds minimally enhance the effect size of the current elicited by 1 mM choline.; Type 1 compounds enhance the effect size of the current elicited by 1 mM choline but minimally alter the kinetics of the receptor.; Type 2 compounds enhance the effect size of the current elicited by 1 mM choline while reducing the rate and/or the extent of desensitization.; Type 3 compounds enhance the effect size of the current elicited by 1 mM choline. When tested at higher concentrations up to 10 μM they completely inhibit desensitization, in particular a 1 mM choline application of 250 milliseconds.; Type 4 compounds allow for an initial desensitization of the receptor followed by a re-opening of the receptor during agonist application; details: hα7-wt nAChR-expressing GH4C1 cells, 1 mM choline
Protocol: The compounds of the present invention are classified as type 0-4, based on qualitative kinetic properties, as determined by whole-cell voltage-clamp recordings. This classification is based on the effect of an α7 PAM compound, as described hereinbefore, on the signal elicited by an agonist application. In particular, said agonist is choline at a concentration of 1 mM. In a preferred experimental setting, said α7 PAM compound and choline are simultaneously applied to the cell, as described hereinafter. Desensitization is defined as the closure of the receptor upon activation during the application of the agonist in whole-cell voltage-clamp electrophysiology measurements seen as the reduction of the […] current after initial activation by the agonist.
The definition of the PAM types 0-4 is described hereinafter: • Type 0 compounds minimally enhance the effect size of the current elicited by 1 mM choline. • Type 1 compounds enhance the effect size of the current elicited by 1 mM choline but minimally alter the kinetics of the receptor. In particular, the rate and the extent of desensitization, elicited by the agonist, is not affected. The compound-modulated response to 1 mM choline, therefore, is a close to linear scaling of the 1 mM choline response in absence of the α7 PAM compound. • Type 2 compounds enhance the effect size of the current elicited by 1 mM choline while reducing the rate and/or the extent of desensitization. • Type 3 compounds enhance the effect size of the current elicited by 1 mM choline. […] At low-potency concentrations of the α7 PAM compound, the agonist-induced activation, which is followed by desensitization, can still be separated from the compound-induced re-opening as an initial inward current-maximum. At higher potency concentrations of the α7 PAM compound, the re-opening occurs faster than the closure due to desensitization so that the initial current-maximum disappears.
A compound was considered to have interesting PAM-like activity when the potentiation of the peak current was at least 200% compared to the control choline response (=100%). Such compounds are classified as belonging to a particular PAM type in the Experimental Part. Compounds not meeting the condition are not classified as belonging to a particular PAM-type.
The compounds also have a potentiating effect on the response to choline when measured by whole-cell patch clamp electrophysiology in GH4C1 cells stably over-expressing the human wild-type α7 receptor.
Patch-clamp recording from mammalian cells has provided a powerful means of assessing the function of membrane-bound proteins thought to be subunits of ligand-gated ion channels. Activation of such proteins by endogenous or exogenous ligands cause opening of a pore associated with the receptor through which ions flow down their electrochemical gradient. In the case of the hα7-wt nAChR-expressing GH4C1 recombinant cell line the preferential permeability to calcium of this receptor means that calcium flows into the cell upon activation by ACh, choline and other nicotinic ligands giving rise to a calcium current. Since this receptor rapidly desensitizes in the presence of agonist it is important an application system is used which is capable of very rapid switching of solutions (<100 ms) to prevent partial or full desensitisation of receptor responses coincident with the time of agonist application. Consequently, a second convenient technique to assess the enhancement of nicotinic efficacy is patch-clamp recording from hα7-wt nAChR-expressing GH4C1 cells coupled with a rapid-application system.
• a) Assay Buffers • The external recording solution consisted of 152 mM NaCl, 5 mM KCl, 1 mM MgCl2, 1 mM Calcium, 10 mM HEPES; pH 7.3. […]

[3] = Ca2+ assay as described in D.1, potentiation of choline response, hα7-wt nAChR

T1 sequence (P36544 23-502): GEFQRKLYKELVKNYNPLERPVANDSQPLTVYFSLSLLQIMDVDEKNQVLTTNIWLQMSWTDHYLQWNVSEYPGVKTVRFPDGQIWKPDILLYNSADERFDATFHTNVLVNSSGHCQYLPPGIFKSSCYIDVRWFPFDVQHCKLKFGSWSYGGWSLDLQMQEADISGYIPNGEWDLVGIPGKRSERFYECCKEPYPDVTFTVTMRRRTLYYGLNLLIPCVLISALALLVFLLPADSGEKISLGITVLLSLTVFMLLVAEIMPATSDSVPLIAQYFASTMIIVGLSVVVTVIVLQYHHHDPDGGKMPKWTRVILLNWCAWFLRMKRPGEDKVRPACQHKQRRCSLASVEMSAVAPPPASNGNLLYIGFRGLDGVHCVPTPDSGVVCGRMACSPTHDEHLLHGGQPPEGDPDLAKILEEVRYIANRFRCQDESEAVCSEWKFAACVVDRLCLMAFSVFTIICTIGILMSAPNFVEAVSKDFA

SMILES	melting point [°C]	EC50 [1, 3] [nM]	Emax [1, 3] [%]	PAM type [2]	Emax [1] [%]
COc1cc(Nc2cc(CC(=O)NCC3CC3)n(-c3ccnc(C)c3)n2)cc(C(F)(F)F)c1 [Compound 5, N-(cyclopropylmethyl)-3-[[3-methoxy-5-(trifluoromethyl)phenyl]amino]-1-(2-methyl-4-pyridinyl)-1H-pyrazole-5-acetamide]	228.3	75.9	–	4	–
COc1cc(Nc2cc(CCC(=O)N(C)C)n(-c3ccnc(C)c3)n2)cc(C(F)(F)F)c1 [Compound 9, 3-[[3-methoxy-5-(trifluoromethyl)phenyl]amino]-N,N-dimethyl-1-(2-methyl-4-pyridinyl)-1H-pyrazole-5-propanamide]	146.4	170	–	4	–
COCc1cc(Nc2ccc(F)c(F)c2)nn1-c1ccnc(C)c1 [Compound 22, N-(3,4-difluorophenyl)-5-(methoxymethyl)-1-(2-methyl-4-pyridinyl)-1H-pyrazol-3-amine]	184.2	1910	–	0	963
CCNC(=O)Cc1cc(Nc2ccc(F)c(F)c2)nn1-c1ccnc(C)c1 [Compound 28, 3-[(3,4-difluorophenyl)amino]-N-ethyl-1-(2-methyl-4-pyridinyl)-1H-pyrazole-5-acetamide]	242.4	2510	–	2	–
Cc1cc(-n2nc(Nc3cccc(C(F)(F)F)c3)cc2CCC(=O)N(C)C)ccn1 [Compound 49, N,N-dimethyl-1-(2-methyl-4-pyridinyl)-3-[[3-(trifluoromethyl)phenyl]amino]-1H-pyrazole-5-propanamide]	–	295	–	4	–
CCNC(=O)Cc1cc(Nc2cccc(Cl)c2F)nn1-c1cc(C)nc(C)c1 [Compound 75, 3-[(3-chloro-2-fluorophenyl)amino]-1-(2,6-dimethyl-4-pyridinyl)-N-ethyl-1H-pyrazole-5-acetamide]	–	372	–	2	–
COc1cc(Cl)cc(Nc2cc(CC(=O)NC3CC3)n(-c3ccnc(C)c3)n2)c1 [Compound 77, 3-[(3-chloro-5-methoxyphenyl)amino]-N-cyclopropyl-1-(2-methyl-4-pyridinyl)-1H-pyrazole-5-acetamide]	–	603	–	4	–
COc1cc(Cl)cc(Nc2cc(CCC(=O)N(C)C)n(-c3ccnc(C)c3)n2)c1 [Compound 85, 3-[(3-chloro-5-methoxyphenyl)amino]-N,N-dimethyl-1-(2-methyl-4-pyridinyl)-1H-pyrazole-5-propanamide]	–	295	–	4	–

Now from value to molecule, other results behind:

melting point [°C]	EC50 [1, 3] [nM]	Emax [1, 3] [%]	SMILES	PAM type [2]	Emax [1] [%]
164.7	832	–	CC[C@@H](O)Cc1cc(Nc2ccc(F)c(F)c2)nn1-c1ccnc(C)c1 [Compound 10, (alphaR)-3-[(3,4-difluorophenyl)amino]-alpha-ethyl-1-(2-methyl-4-pyridinyl)-1H-pyrazole-5-ethanol]	2	–
163.2	1660	880	CC[C@H](O)Cc1cc(Nc2ccc(F)c(F)c2)nn1-c1ccnc(C)c1 [Compound 17, (alphaS)-3-[(3,4-difluorophenyl)amino]-alpha-ethyl-1-(2-methyl-4-pyridinyl)-1H-pyrazole-5-ethanol]	2	–
149.1	2400	–	CC[C@H](O)Cc1cc(Nc2ccc(F)c(F)c2F)nn1-c1ccnc(C)c1 [Compound 18, (alphaS)-alpha-ethyl-1-(2-methyl-4-pyridinyl)-3-[(2,3,4-trifluorophenyl)amino]-1H-pyrazole-5-ethanol]	1	–
–	851	–	CC[C@H](O)Cc1cc(Nc2cc(F)c(F)c(F)c2)nn1-c1ccnc(C)c1 [Compound 20, (alphaS)-alpha-ethyl-1-(2-methyl-4-pyridinyl)-3-[(3,4,5-trifluorophenyl)amino]-1H-pyrazole-5-ethanol]	2	–
166.6	3470	–	CC[C@H](O)Cc1cc(Nc2cc(F)c(F)cc2F)nn1-c1ccnc(C)c1 [Compound 21, (alphaS)-alpha-ethyl-1-(2-methyl-4-pyridinyl)-3-[(2,4,5-trifluorophenyl)amino]-1H-pyrazole-5-ethanol]	2	–
–	977	–	Cc1cc(-n2nc(Nc3ccc(F)c(F)c3)cc2CCC(=O)N(C)C)ccn1 [Compound 30, 3-[(3,4-difluorophenyl)amino]-N,N-dimethyl-1-(2-methyl-4-pyridinyl)-1H-pyrazole-5-propanamide]	4	–
–	162	–	CC[C@@H](O)Cc1cc(Nc2cc(OC)cc(C(F)(F)F)c2)nn1-c1ccnc(C)c1 [Compound 36, (alphaR)-alpha-ethyl-3-[[3-methoxy-5-(trifluoromethyl)phenyl]amino]-1-(2-methyl-4-pyridinyl)-1H-pyrazole-5-ethanol]	2	–
–	1860	–	CNC(=O)Cc1cc(Nc2cccc(C(F)(F)F)c2)nn1-c1ccnc(C)c1 [Compound 42, N-methyl-1-(2-methyl-4-pyridinyl)-3-[[3-(trifluoromethyl)phenyl]amino]-1H-pyrazole-5-acetamide]	4	–
–	661	–	Cc1cc(-n2nc(Nc3cccc(Cl)c3F)cc2CCC(=O)N(C)C)ccn1 [Compound 84, 3-[(3-chloro-2-fluorophenyl)amino]-N,N-dimethyl-1-(2-methyl-4-pyridinyl)-1H-pyrazole-5-propanamide]	4	–
–	1660	–	CC[C@H](O)Cc1cc(Nc2ccc(Br)cc2C#N)nn1-c1ccnc(C)c1 [Compound 124, 5-bromo-2-[[5-[(2S)-2-hydroxybutyl]-1-(2-methyl-4-pyridinyl)-1H-pyrazol-3-yl]amino]-benzonitrile]	2	–
